The values below come from ChEMBL document CHEMBL3526141, “Characterization of human liver enzymes involved in the biotransformation of boceprevir, a hepatitis C virus protease inhibitor” (Drug Metab Dispos, 2011).

Data set [1] has as its target T1, Aldo-keto reductase family 1 member C3 (Homo sapiens, UniProt P42330).
T1 sequence (P42330 whole entry): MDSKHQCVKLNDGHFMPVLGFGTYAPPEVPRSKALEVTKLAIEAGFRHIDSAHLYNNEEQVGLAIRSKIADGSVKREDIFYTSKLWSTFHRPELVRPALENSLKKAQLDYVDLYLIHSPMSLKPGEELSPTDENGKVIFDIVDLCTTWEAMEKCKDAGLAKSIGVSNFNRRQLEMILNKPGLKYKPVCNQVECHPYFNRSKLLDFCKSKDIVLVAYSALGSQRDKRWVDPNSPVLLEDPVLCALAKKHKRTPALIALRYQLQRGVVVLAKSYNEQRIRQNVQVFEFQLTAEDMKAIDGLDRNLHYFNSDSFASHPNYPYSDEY
As to the kind of experiment: Drug metabolism in human recombinant […] HEK293 cells treated with 20 uM boceprevir assessed as 100 uM flufenamic acid-mediated inhibition of AKR1C3-mediated metabolite formation after 120 mins in presence of NADPH by LC-MS/MS/FSA method. The data set is classed as ADME, cell-based. Also on record: interact cpd dose 100 uM. The settings on record: hek293, 2 h.

Data set [2] has as its system Liver cytosol. Kind of data set: Drug metabolism in human liver cytosol at 20 uM assessed as (1R,2S,5S)-N-((2R,3R)-4-amino-1-cyclobutyl-3-hydroxy-4-oxobutan-2-yl)-3-((S)-2-(3-tert-butylureido)-3,3-dimethylbutanoyl)-6,6-dimethyl-3-azabicyclo[3.1.0]hexane-2-carboxamide formation at 20 uM after 60 mins in presence of AKR inhibitor diazepam by LC-MS/MS/FSA method. It is filed as ADME. The settings on record: 1 h.

Another data set deals with Liver microsome. Kind of data set: Drug metabolism in human liver microsomes treated with 5 uM [14C]boceprevir assessed as compound formation by LC-MS/FSA method relative to total [14C]boceprevir. The data set is classed as ADME.
In data set [3] the test system is Liver cytosol. As to the kind of experiment: Drug metabolism in human liver cytosol at 20 uM assessed as (1R,2S,5S)-N-((2S,3R)-4-amino-1-cyclobutyl-3-hydroxy-4-oxobutan-2-yl)-3-((S)-2-(3-tert-butylureido)-3,3-dimethylbutanoyl)-6,6-dimethyl-3-azabicyclo[3.1.0]hexane-2-carboxamide formation in presence of flufenamic acid by LC-MS/MS/FSA method. It is filed as ADME.

Data set [4] is described as follows: Drug excretion in human feces assessed as oxidative metabolites level. More on the design: dosed compound name [14C]boceprevir. It is filed as ADME.
For data set [5], the target named is T2, Aldo-keto reductase family 1 member C4 (Homo sapiens, UniProt P17516).
T2 sequence (P17516 whole entry): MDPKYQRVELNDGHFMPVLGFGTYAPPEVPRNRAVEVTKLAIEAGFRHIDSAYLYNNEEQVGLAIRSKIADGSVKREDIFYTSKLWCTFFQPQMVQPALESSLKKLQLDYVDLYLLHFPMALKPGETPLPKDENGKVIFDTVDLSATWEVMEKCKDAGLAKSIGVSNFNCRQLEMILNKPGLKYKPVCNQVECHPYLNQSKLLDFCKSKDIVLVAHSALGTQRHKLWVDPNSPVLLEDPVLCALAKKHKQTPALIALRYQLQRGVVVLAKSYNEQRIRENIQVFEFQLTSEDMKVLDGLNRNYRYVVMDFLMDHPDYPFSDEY
Kind of data set: Activity of human recombinant AKR1C4 expressed in HEK293 cells assessed as (1R,2S,5S)-N-((2S,3R)-4-amino-1-cyclobutyl-3-hydroxy-4-oxobutan-2-yl)-3-((S)-2-(3-tert-butylureido)-3,3-dimethylbutanoyl)-6,6-dimethyl-3-azabicyclo[3.1.0]hexane-2-carboxamide formation per mg protein after 120 mins in presence of NADPH by LC-MS/MS/FSA method. The data set is classed as ADME, cell-based. The conditions noted are these: hek293, 2 h.

Data set [6] in a line: Drug metabolism in human liver S9 fraction at 20 uM assessed as (1R,2S,5S)-N-((2S,3R)-4-amino-1-cyclobutyl-3-hydroxy-4-oxobutan-2-yl)-3-((S)-2-(3-tert-butylureido)-3,3-dimethylbutanoyl)-6,6-dimethyl-3-azabicyclo[3.1.0]hexane-2-carboxamide formation in presence of quercetin by LC-MS/MS/FSA method. The settings on record: s9, 20 µM. The data set is classed as ADME, subcellular.

Another data set deals with T3, Cytochrome P450 4F12 (Homo sapiens, UniProt Q9HCS2).
T3 sequence (Q9HCS2 whole entry): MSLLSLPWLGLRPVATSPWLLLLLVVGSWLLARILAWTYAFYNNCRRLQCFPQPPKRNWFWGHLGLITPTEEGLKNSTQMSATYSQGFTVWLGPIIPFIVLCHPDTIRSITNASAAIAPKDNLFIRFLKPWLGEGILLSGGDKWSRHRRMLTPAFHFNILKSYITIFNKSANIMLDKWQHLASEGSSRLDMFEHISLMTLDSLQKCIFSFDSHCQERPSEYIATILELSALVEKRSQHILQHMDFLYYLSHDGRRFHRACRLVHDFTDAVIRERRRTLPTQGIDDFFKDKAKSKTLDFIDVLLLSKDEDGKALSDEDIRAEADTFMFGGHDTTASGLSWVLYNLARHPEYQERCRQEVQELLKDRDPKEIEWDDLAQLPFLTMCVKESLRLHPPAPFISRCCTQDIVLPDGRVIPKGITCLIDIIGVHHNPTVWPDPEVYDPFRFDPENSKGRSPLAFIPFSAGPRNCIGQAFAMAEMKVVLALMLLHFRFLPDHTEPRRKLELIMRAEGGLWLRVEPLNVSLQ
As to the kind of experiment: Drug metabolism assessed as human CYP4F12-mediated compound formation from 5 to 20 uM [14C]boceprevir after 120 mins by LC-MS/FSA method relative to total [14C]boceprevir. The data set is classed as ADME. The settings on record: recombinant enzyme, 2 h.

For data set [7], the system named is Liver cytosol. Kind of data set: Drug metabolism in human liver cytosol at 20 uM assessed as (1R,2S,5S)-N-((2S,3R)-4-amino-1-cyclobutyl-3-hydroxy-4-oxobutan-2-yl)-3-((S)-2-(3-tert-butylureido)-3,3-dimethylbutanoyl)-6,6-dimethyl-3-azabicyclo[3.1.0]hexane-2-carboxamide formation at 20 uM after 60 mins in presence of AKR inhibitor ibuprofen by LC-MS/MS/FSA method. The data set is classed as ADME. The conditions noted are these: 1 h.

A short description of data set [8]: Drug metabolism in human liver S9 fraction at 20 uM assessed as (1R,2S,5S)-N-((2S,3R)-4-amino-1-cyclobutyl-3-hydroxy-4-oxobutan-2-yl)-3-((S)-2-(3-tert-butylureido)-3,3-dimethylbutanoyl)-6,6-dimethyl-3-azabicyclo[3.1.0]hexane-2-carboxamide formation in presence of pargyline by LC-MS/MS/FSA method. It is filed as ADME, subcellular. The settings on record: s9, 20 µM.

For data set [9], the system named is Liver cytosol. Kind of data set: Drug metabolism in human liver cytosol at 20 uM assessed as (1R,2S,5S)-N-((2S,3R)-4-amino-1-cyclobutyl-3-hydroxy-4-oxobutan-2-yl)-3-((S)-2-(3-tert-butylureido)-3,3-dimethylbutanoyl)-6,6-dimethyl-3-azabicyclo[3.1.0]hexane-2-carboxamide formation in presence of allopurinol by LC-MS/MS/FSA method. The data set is classed as ADME.

Data set [10] is described as follows: Drug excretion in human feces. More on the design: dosed compound name [14C]-SCH 534128. The data set is classed as ADME.
The test system of data set [11] is Liver cytosol. As to the kind of experiment: Drug metabolism in human liver cytosol at 20 uM assessed as (1R,2S,5S)-N-((2S,3R)-4-amino-1-cyclobutyl-3-hydroxy-4-oxobutan-2-yl)-3-((S)-2-(3-tert-butylureido)-3,3-dimethylbutanoyl)-6,6-dimethyl-3-azabicyclo[3.1.0]hexane-2-carboxamide formation at 20 uM after 60 mins in presence of ketoconazole by LC-MS/MS/FSA method. It is filed as ADME. The settings on record: 1 h.

Regarding `CC(C)(C)NC(=O)N[C@H](C(=O)N1C[C@H]2[C@@H]([C@H]1C(=O)N[C@@H](CC1CCC1)[C@@H](O)C(N)=O)C2(C)C)C(C)(C)C`, the “inhibition (INH)” value in data set [1] is on record as 93%.

Turning to `CC(C)(C)NC(=O)N[C@H](C(=O)N1C[C@H]2[C@@H]([C@H]1C(=O)N[C@H](CC1CCC1)C(=O)C(N)=O)C2(C)C)C(C)(C)C`, the Compound recovery result in the data set with Liver cytosol [2] was “metabolite_not_detected”; in the data set with Liver microsome, 0.31%.

With `CC(C)(C)NC(=O)N[C@H](C(=O)N1C[C@H]2[C@@H]([C@H]1C(=O)NC(CC1CCC1)C(=O)C(N)=O)C2(C)C)C(C)(C)C` (stereo partly drawn) [BOCEPREVIR], the Compound recovery result with Liver cytosol [3] is given as “metabolite_not_detected”; in [5] it was “metabolite_not_detected”; in [6] it was “metabolite_not_detected”; on Cytochrome P450 4F12, “metabolite_not_detected”; in the data set with Liver cytosol [7], “metabolite_not_detected”; in data set [8], “metabolite_detected”. Besides, the Compound recovery entry in the data set with Liver cytosol [9] and with Liver cytosol [11] was “metabolite_detected” in each case. For the same molecule, the values for the Radiolabel recovery in data set [4] and in data set [10] were 50% and “metabolite_not_detected”, respectively.
